Laboratory results as given in patent EP4818168A1, “FUSED RING COMPOUND, PHARMACEUTICAL COMPOSITION THEREOF AND USE THEREOF” (priority 2023, dated 2025).
Where two headings read alike, the source gives them in different places.

Experiments:
H82 cells = test: cells; assay type: cell-based
How it was run: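 After 6 days' compound treatment at 37 °C (final DMSO 0.1%, RPMI1640/10% FBS), viable H82 cells were quantified by ATP-dependent CellTiter-Glo luminescence. Remaining activity was calculated against DMSO and medium wells, and a sigmoidal fit gave IC50.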

AURKA = target: T1, AURKA (Homo sapiens, UniProt O14965); assay type: cell-based; details: Jurkat cells, 24 h, Table 2
T1 construct: endogenous in cells; host or cells: Jurkat cells
T1 sequence (O14965 1-403): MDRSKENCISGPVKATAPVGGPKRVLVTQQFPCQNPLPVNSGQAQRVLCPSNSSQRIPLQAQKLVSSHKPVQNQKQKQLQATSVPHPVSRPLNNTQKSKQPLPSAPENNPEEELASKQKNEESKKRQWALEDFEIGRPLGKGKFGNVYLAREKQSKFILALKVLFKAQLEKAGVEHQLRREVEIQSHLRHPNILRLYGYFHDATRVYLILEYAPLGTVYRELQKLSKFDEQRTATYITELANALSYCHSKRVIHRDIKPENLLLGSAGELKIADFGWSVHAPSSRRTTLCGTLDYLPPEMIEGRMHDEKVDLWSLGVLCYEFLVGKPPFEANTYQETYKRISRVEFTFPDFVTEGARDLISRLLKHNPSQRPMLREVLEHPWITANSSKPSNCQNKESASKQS
How it was run: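 AURKA degradation read by western blot: band signal, fluorescent or chemiluminescent, curve-fitted to derive DC50. Cells were Jurkat, plated at 1×10^6 cells/500 µL with compound, then lysed and blotted onto nitrocellulose, primary antibody overnight at 4°C.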

[1] = Homo sapiens, NCI-H82, H82 cells, 4000 cells/well, CellTiter-Glo, read-out: IC50 in H82 Cells
[2] = Homo sapiens, NCI-H82, read-out: IC50 in H82 Cells

Row | Compound | IC50 (H82 cells; [1]) [nM] | Percentage of AURKA Degradation Induced by 100 nM Compound in Jurkat Cells (AURKA) | Percentage of AURKA Degradation Induced by 1 µM Compound in Jurkat Cells (AURKA) | IC50 (H82 cells; read-out: IC50 in H82 Cells, H82 cells, 4000 cells/well, CellTiter-Glo) [nM] | IC50 (H82 cells; [2]) [nM]
1 | Cc1c(N2CC(CN3CCc4ccc(Nc5ncc6c(n5)-c5ccc(Cl)cc5C(c5c(F)cccc5F)=NC6)cc4C3)C2)cccc1N1CCC(=O)NC1=O [Compound A176] | < 1000 | +++ (Degradation > 70%) | +++ (Degradation > 70%) |  | 
2 | O=C1CCN(c2ccc(N3CCN(CCC#Cc4cccc(Nc5ncc6c(n5)-c5ccc(Cl)cc5C(c5c(F)cccc5F)=NC6)c4)CC3)cc2)C(=O)N1 [Compound A97] | < 1000 | + (Degradation ≤ 30%) | + (Degradation ≤ 30%) |  | 
3 | O=C1CCN(c2ccc(N3CC(N4CCN(C(=O)C56CC(Nc7ncc8c(n7)-c7ccc(Cl)cc7C(c7c(F)cccc7F)=NC8)(C5)C6)CC4)C3)nc2)C(=O)N1 [Compound A275] | < 1000 | +++ (Degradation > 70%) | +++ (Degradation > 70%) |  | 
4 | CN1CCN(CC2CN(c3cncc(N4CCC(=O)NC4=O)c3)C2)Cc2cc(Nc3ncc4c(n3)-c3ccc(Cl)cc3C(c3c(F)cccc3F)=NC4)ccc21 [Compound A225] | < 1000 | +++ (Degradation > 70%) | + (Degradation ≤ 30%) |  | 
5 | N#Cc1ccc2c(c1)C(c1c(F)cccc1F)=NCc1cnc(Nc3ccc(N4CC(F)(CN5CCN(c6ccc(N7CCC(=O)NC7=O)cn6)CC5)C4)cc3)nc1-2 [Compound A319] | < 1000 | +++ (Degradation > 70%) | +++ (Degradation > 70%) |  | 
6 | O=C1CCN(c2ccc(N3CCC(OC4CN(c5ccc(Nc6ncc7c(n6)-c6ccc(Cl)cc6C(c6c(F)cccc6F)=NC7)cc5)C4)CC3)nc2)C(=O)N1 [Compound A254] | < 1000 | +++ (Degradation > 70%) | ++ (30% < Degradation ≤ 70%) |  | 
7 | CN1CCN(CC2CN(c3cccc(N4CCC(=O)NC4=O)c3)C2)Cc2cc(Nc3ncc4c(n3)-c3ccc(Cl)cc3C(c3c(F)cccc3F)=NC4)ccc21 [Compound A236] | < 1000 | +++ (Degradation > 70%) | ++ (30% < Degradation ≤ 70%) |  | 
8 | O=C1CCN(c2ccc(N3CCC(N4CCN(c5ccc(Nc6ncc7c(n6)-c6ccc(Cl)cc6C(c6c(F)cccc6F)=NC7)cc5)C(=O)C4)C3)nc2)C(=O)N1 (stereo not drawn) [Compound A166] | < 1000 | +++ (Degradation > 70%) | ++ (30% < Degradation ≤ 70%) |  | 
9 | O=C1CCN(c2ccc(N3CCC(N4CCN(C56CC(Nc7ncc8c(n7)-c7ccc(Cl)cc7C(c7c(F)cccc7F)=NC8)(C5)C6)C(=O)C4)CC3)nc2)C(=O)N1 [Compound A306] | < 1000 | ++ (30% < Degradation ≤ 70%) | +++ (Degradation > 70%) |  | 
10 | N#Cc1ccc2c(c1)C(c1nccs1)=NCc1cnc(Nc3ccc(N4CCN(C5CCN(c6ccc(N7CCC(=O)NC7=O)cn6)CC5)CC4=O)cc3)nc1-2 [Compound A322] | < 1000 | +++ (Degradation > 70%) | +++ (Degradation > 70%) |  | 
11 | O=C1CCN(c2ccc(N3CCC(C(=O)N4CCN(c5ccc(Nc6ncc7c(n6)-c6ccc(Cl)cc6C(c6nccs6)=NC7)cc5)CC4)CC3)nc2)C(=O)N1 [Compound A320] | < 1000 | +++ (Degradation > 70%) | +++ (Degradation > 70%) |  | 
12 | O=C1CCN(c2cccc(N3CC(CN4CCN(c5cccc(Nc6ncc7c(n6)-c6ccc(Cl)cc6C(c6c(F)cccc6F)=NC7)c5)CC4)C3)c2)C(=O)N1 [Compound A140] | < 1000 | +++ (Degradation > 70%) | +++ (Degradation > 70%) |  | 
13 | O=C1CCN(c2ccc(N3CCOC4(CC(N5CCN(C67CC(Nc8ncc9c(n8)-c8ccc(Cl)cc8C(c8c(F)cccc8F)=NC9)(C6)C7)C(=O)C5)C4)C3)nc2)C(=O)N1 (single isomer, unassigned) [Compound A349] |  | ++ (30% < Degradation ≤ 70%) | ++ (30% < Degradation ≤ 70%) | < 1000 | 
14 | O=C1CCN(c2ccc(N3CCN(C(=O)[C@@H]4CN(c5ccc(Nc6ncc7c(n6)-c6ccc(Cl)cc6C(c6c(F)cccc6F)=NC7)cc5)CCO4)CC3)nc2)C(=O)N1 [Compound A324] | < 1000 | +++ (Degradation > 70%) | +++ (Degradation > 70%) |  | 
15 | N#Cc1cc(N2CCC(=O)NC2=O)ccc1N1CCN(C(=O)C2CCN(c3ccc(Nc4ncc5c(n4)-c4ccc(Cl)cc4C(c4c(F)cccc4F)=NC5)cc3)CC2)CC1 [Compound A296] | < 1000 | +++ (Degradation > 70%) | +++ (Degradation > 70%) |  | 
16 | O=C1CCN(c2ccc(N3CCN(CCN4Cc5cc(Nc6ncc7c(n6)-c6ccc(Cl)cc6C(c6c(F)cccc6F)=NC7)ccc5C4=O)CC3)cc2)C(=O)N1 [Compound A158] | < 1000 | ++ (30% < Degradation ≤ 70%) | + (Degradation ≤ 30%) |  | 
17 | N#Cc1cc(Nc2ncc3c(n2)-c2ccc(Cl)cc2C(c2c(F)cccc2F)=NC3)ccc1N1CCN(C2CCN(c3ccc(N4CCC(=O)NC4=O)cn3)CC2)CC1 [Compound A211] | < 1000 | ++ (30% < Degradation ≤ 70%) | +++ (Degradation > 70%) |  | 
18 | O=C1CCN(c2ccc(N3CCC4(CC3)CC(N3CCC(c5ccc(Nc6ncc7c(n6)-c6ccc(Cl)cc6C(c6c(F)cccc6F)=NC7)cc5)C(F)(F)C3)CO4)nc2)C(=O)N1 (stereo not drawn) [Compound A351] | < 1000 | +++ (Degradation > 70%) | +++ (Degradation > 70%) |  | 
19 | O=C1CCN(c2ccc(N3CC(N4CCN(Cc5ccc(Nc6ncc7c(n6)-c6ccc(Cl)cc6C(c6c(F)cccc6F)=NC7)cc5)CC4)C3)nc2)C(=O)N1 [Compound A101] | < 1000 | +++ (Degradation > 70%) | +++ (Degradation > 70%) |  | 
20 | Cn1nc(N2CCC(=O)NC2=O)c2cc(F)c(N3CCN(CC4CN(c5cccc(Nc6ncc7c(n6)-c6ccc(Cl)cc6C(c6c(F)cccc6F)=NC7)c5)C4)CC3)cc21 [Compound A245] | < 1000 | +++ (Degradation > 70%) | +++ (Degradation > 70%) |  | 
21 | O=C1CCN(c2ccc(C3CCN(CC4CN(c5ccc(Nc6ncc7c(n6)-c6ccc(Cl)cc6C(c6c(F)cccc6F)=NC7)cc5)C4)CC3)nc2)C(=O)N1 [Compound A249] | < 1000 | +++ (Degradation > 70%) | +++ (Degradation > 70%) |  | 
22 | O=C1CCN(c2ccc(N3CCC4(CC3)C[C@@H](N3CCN(c5ccc(Nc6ncc7c(n6)-c6ccc(Cl)cc6C(c6c(F)cccc6F)=NC7)cc5)CC3)CO4)nc2)C(=O)N1 [Compound A341] |  | +++ (Degradation > 70%) | +++ (Degradation > 70%) |  | < 1000
23 | O=C1CCN(c2cncc(N3CC(CN4CCc5ccc(Nc6ncc7c(n6)-c6ccc(Cl)cc6C(c6c(F)cccc6F)=NC7)cc5C4)C3)c2)C(=O)N1 [Compound A209] |  | +++ (Degradation > 70%) | +++ (Degradation > 70%) |  | < 1000
24 | N#Cc1ccc2c(c1)C(c1c(F)cccc1F)=NCc1cnc(Nc3ccc(N4CCN(C5CCN(c6ccc(N7CCC(=O)NC7=O)cn6)CC5)CC4=O)cc3)nc1-2 [Compound A305] | < 1000 | +++ (Degradation > 70%) | +++ (Degradation > 70%) |  | 
25 | Cc1c(N2CCN(CCC#Cc3cccc(Nc4ncc5c(n4)-c4ccc(Cl)cc4C(c4c(F)cccc4F)=NC5)c3)CC2)cccc1N1CCC(=O)NC1=O [Compound A129] | < 1000 | +++ (Degradation > 70%) | +++ (Degradation > 70%) |  | 
